Read-outs that look alike come from different tables or passages of the source.
Columns and labels:
[1] = young intact rhesus monkeys; cited from earlier work
[2] = Guanfacine plasma pharmacokinetics, crossover drug-drug interaction study; parameters: species or system healthy adults; settings: human, in vivo
Experimental: (§1) An open-label, randomized, single-center, 3-period, crossover, drug-drug interaction study in 42 healthy adults (18-45 years old) was performed. Subjects received three single, oral dose treatments: 4 mg extended release guanfacine, 50 mg lisdexamphetmaine, and 4 mg extended release guanfacine in combination with 50 mg lisdexamphetmaine. Subjects underwent the three treatment periods with a 7-day washout between each treatment.

[3] = biological target: CYP3A4 (Homo sapiens, UniProt P08684); settings: cited from earlier work
CYP3A4, sequence (P08684 whole entry, species assumed): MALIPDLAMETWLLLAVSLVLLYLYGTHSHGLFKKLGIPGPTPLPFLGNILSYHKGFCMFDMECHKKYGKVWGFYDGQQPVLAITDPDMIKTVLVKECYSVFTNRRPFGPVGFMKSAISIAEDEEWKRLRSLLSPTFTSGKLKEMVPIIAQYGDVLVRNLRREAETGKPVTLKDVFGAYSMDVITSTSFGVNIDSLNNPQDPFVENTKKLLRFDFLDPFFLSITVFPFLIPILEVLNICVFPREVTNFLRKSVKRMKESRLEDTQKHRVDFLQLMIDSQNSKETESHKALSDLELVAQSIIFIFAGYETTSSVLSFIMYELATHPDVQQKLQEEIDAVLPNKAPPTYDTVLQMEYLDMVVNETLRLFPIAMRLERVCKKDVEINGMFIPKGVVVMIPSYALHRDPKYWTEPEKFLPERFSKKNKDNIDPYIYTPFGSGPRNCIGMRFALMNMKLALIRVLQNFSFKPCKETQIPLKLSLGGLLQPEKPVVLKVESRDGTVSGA

[4] = Adverse events and safety, crossover drug-drug interaction study; format: in vivo, healthy adults; settings: TEAEs by treatment; single oral dose (SPD503 4 mg, VYVANSE 50 mg)
Experimental: A “treatment-emergent adverse event” (TEAE) is an AE that occurred or worsened during the on-treatment period.
A “non-treatment-emergent adverse event” is an AE that occurred during the pre-treatment period or the post-treatment period.
as §1

[5] = d-Amphetamine plasma pharmacokinetics, crossover drug-drug interaction study; format: in vivo, healthy adults
Experimental: as §1

[6] = Lisdexamphetamine plasma pharmacokinetics, crossover drug-drug interaction study; format: in vivo, healthy adults; parameters: lisdexamphetamine plasma concentration, Mean / lisdexamphetamine plasma concentration, Median / lisdexamphetamine plasma concentration, Min / lisdexamphetamine plasma concentration, Max: unit not given here; settings: for AUC / AUC(0-t) / Cmax / Tmax / Vd/F / CL/F: po, 50 mg
Experimental: as §1

[7] = tested on: CYP450 system; settings: cited from earlier work
[8] = single oral dose 50 mg, weight normalized
[9] = time 0.5, single oral dose 50 mg
[10] = time 1.5, single oral dose 50 mg
[11] = time 12, single oral dose 50 mg
[12] = time 24, single oral dose 50 mg
[13] = time 30, single oral dose 50 mg
[14] = time 48, single oral dose 50 mg
[15] = time 72, single oral dose 50 mg

Cl.N=C(N)NC(=O)Cc1c(Cl)cccc1Cl [guanfacine]
delayed response performance [1]: can be improved | guanfacine Cmax in combination compared with alone [2]: higher than when administered alone | metabolism by CYP3A4 [3]: known to be metabolized by CYP3A4

C[C@@H](Cc1ccccc1)NC(=O)[C@@H](N)CCCCN [VYVANSE Alone, lisdexamphetamine dimesylate]
TEAE: Any Event [4]: 8 (19.5) n (%) | TEAE: Arrhythmia supraventricular [4]: 1 (2.4) n (%) | TEAE: Cardiac disorders [4]: 3 (7.3) n (%) | TEAE: Diarrhoea [4]: 0 (0.0) n (%) | TEAE: Dizziness [4]: 3 (7.3) n (%) | TEAE: Dizziness postural [4]: 1 (2.4) n (%) | TEAE: Dry mouth [4]: 1 (2.4) n (%) | TEAE: Dysmenorrhoea [4]: 1 (2.4) n (%) | TEAE: Flushing [4]: 0 (0.0) n (%) | TEAE: Gastrointestinal disorders [4]: 2 (4.9) n (%) | TEAE: General disorders and administration site conditions [4]: 0 (0.0) n (%) | TEAE: Headache [4]: 2 (4.9) n (%) | TEAE: Nausea [4]: 1 (2.4) n (%) | TEAE: Nervous system disorders [4]: 4 (9.8) n (%) | TEAE: Nervousness [4]: 2 (4.9) n (%) | TEAE: Non-cardiac chest pain [4]: 0 (0.0) n (%) | TEAE: Orthostatic hypotension [4]: 0 (0.0) n (%) | TEAE: Palpitations [4]: 1 (2.4) n (%) | TEAE: Paraesthesia [4]: 0 (0.0) n (%) | TEAE: Psychiatric disorders [4]: 2 (4.9) n (%) | TEAE: Psychomotor hyperactivity [4]: 1 (2.4) n (%) | TEAE: Reproductive system and breast disorders [4]: 1 (2.4) n (%) | TEAE: Supraventricular extrasystoles [4]: 0 (0.0) n (%) | TEAE: Tachycardia [4]: 1 (2.4) n (%) | TEAE: Vascular disorders [4]: 0 (0.0) n (%) | TEAE: Wandering pacemaker [4]: 1 (2.4) n (%) | mean d-amphetamine plasma concentrations, alone compared with co-administration ([5]; FIG. 2): essentially identical | weight normalized CL/F, alone compared with combination ([5]; between the two treatments): essentially the same | mean lisdexamphetamine plasma concentrations, alone compared with co-administration ([6]; FIG. 3): essentially identical | AUC ([6]; human, plasma, single oral dose 50 mg, read-out: lisdexamphetamine AUCinfo, Geo Mean): 32.4 ng·h/mL | AUC ([6]; human, plasma, single oral dose 50 mg, read-out: lisdexamphetamine AUCinfo, Mean): 36.1 ng·h/mL | AUC ([6]; human, plasma, single oral dose 50 mg, read-out: lisdexamphetamine AUCinfo, Median): 33.2 ng·h/mL | AUC(0-t) ([6]; human, plasma, single oral dose 50 mg, read-out: lisdexamphetamine AUClast, Geo Mean): 28.3 ng·h/mL | AUC(0-t) ([6]; human, plasma, single oral dose 50 mg, read-out: lisdexamphetamine AUClast, Mean): 32.1 ng·h/mL | AUC(0-t) ([6]; human, plasma, single oral dose 50 mg, read-out: lisdexamphetamine AUClast, Median): 27.2 ng·h/mL | Cmax ([6]; human, plasma, single oral dose 50 mg, read-out: lisdexamphetamine Cmax, Geo Mean): 22.5 ng/mL | Cmax ([6]; human, plasma, single oral dose 50 mg, read-out: lisdexamphetamine Cmax, Mean): 26.1 ng/mL | Cmax ([6]; human, plasma, single oral dose 50 mg, read-out: lisdexamphetamine Cmax, Median): 25.2 ng/mL | Tmax ([6]; human, plasma, single oral dose 50 mg, read-out: lisdexamphetamine Tmax, Geo Mean): 1.1 h | Tmax ([6]; human, plasma, single oral dose 50 mg, read-out: lisdexamphetamine Tmax, Mean): 1.1 h | Tmax ([6]; human, plasma, single oral dose 50 mg, read-out: lisdexamphetamine Tmax, Median): 1 h | Vd/F ([6]; human, plasma, single oral dose 50 mg, read-out: lisdexamphetamine VZ/F, Geo Mean): 1090 L | Vd/F ([6]; human, plasma, single oral dose 50 mg, read-out: lisdexamphetamine VZ/F, Mean): 1270 L | Vd/F ([6]; human, plasma, single oral dose 50 mg, read-out: lisdexamphetamine VZ/F, Median): 1040 L | CL/F ([6]; human, plasma, single oral dose 50 mg, weight normalized, read-out: lisdexamphetamine CL/F, Geo Mean (converted)): 339 mL/min/kg | CL/F ([6]; human, plasma, single oral dose 50 mg, weight normalized, read-out: lisdexamphetamine CL/F, Mean (converted)): 362 mL/min/kg | CL/F ([6]; human, plasma, single oral dose 50 mg, weight normalized, read-out: lisdexamphetamine CL/F, Median (converted)): 345 mL/min/kg | Vd/F ([6]; human, plasma, single oral dose 50 mg, weight normalized, read-out: lisdexamphetamine VZ/F, Geo Mean): 14.4 L/kg | Vd/F ([6]; human, plasma, single oral dose 50 mg, weight normalized, read-out: lisdexamphetamine VZ/F, Mean): 16 L/kg | Vd/F ([6]; human, plasma, single oral dose 50 mg, weight normalized, read-out: lisdexamphetamine VZ/F, Median): 13.7 L/kg | half-life ([6]; human, plasma, single oral dose 50 mg, read-out: lisdexamphetamine T1/2, Mean (converted)): 0.5 h | lisdexamphetamine AUCinfo, Max ([6]; single oral dose 50 mg): 95.6 ng·h/mL | lisdexamphetamine AUCinfo, Min ([6]; single oral dose 50 mg): 14.2 ng·h/mL | lisdexamphetamine AUClast, Max ([6]; single oral dose 50 mg): 94.3 ng·h/mL | lisdexamphetamine AUClast, Min ([6]; single oral dose 50 mg): 10.2 ng·h/mL | lisdexamphetamine CL/F, Geo Mean ([6]; single oral dose 50 mg): 1543 L/h | lisdexamphetamine CL/F, Max ([6]; single oral dose 50 mg): 3523.94 L/h | lisdexamphetamine CL/F, Mean ([6]; single oral dose 50 mg): 1701.28 L/h | lisdexamphetamine CL/F, Median ([6]; single oral dose 50 mg): 1504.94 L/h | lisdexamphetamine CL/F, Min ([6]; single oral dose 50 mg): 522.89 L/h | lisdexamphetamine Cmax, Max ([6]; single oral dose 50 mg): 82.37 ng/mL | lisdexamphetamine Cmax, Min ([6]; single oral dose 50 mg): 5.87 ng/mL | lisdexamphetamine T1/2, Geo Mean ([6]; single oral dose 50 mg): 0.5 h | lisdexamphetamine T1/2, Max ([6]; single oral dose 50 mg): 0.8 h | lisdexamphetamine T1/2, Min ([6]; single oral dose 50 mg): 0.3 h | lisdexamphetamine Tmax, Max ([6]; single oral dose 50 mg): 1.5 h | lisdexamphetamine Tmax, Min ([6]; single oral dose 50 mg): 1 h | lisdexamphetamine CL/F, Max [6, 8]: 660.7 mL/min/kg | lisdexamphetamine CL/F, Min [6, 8]: 115 mL/min/kg | lisdexamphetamine plasma concentration, Max ([6]; time 0, single oral dose 50 mg): 0 | lisdexamphetamine plasma concentration, Mean ([6]; time 0, single oral dose 50 mg): 0 | lisdexamphetamine plasma concentration, Median ([6]; time 0, single oral dose 50 mg): 0 | lisdexamphetamine plasma concentration, Min ([6]; time 0, single oral dose 50 mg): 0 | lisdexamphetamine plasma concentration, Max [6, 9]: 54.99 | lisdexamphetamine plasma concentration, Mean [6, 9]: 8.5483 | lisdexamphetamine plasma concentration, Median [6, 9]: 4.51 | lisdexamphetamine plasma concentration, Min [6, 9]: 0 | lisdexamphetamine plasma concentration, Max ([6]; time 1, single oral dose 50 mg): 82.37 | lisdexamphetamine plasma concentration, Mean ([6]; time 1, single oral dose 50 mg): 24.921 | lisdexamphetamine plasma concentration, Median ([6]; time 1, single oral dose 50 mg): 23.56 | lisdexamphetamine plasma concentration, Min ([6]; time 1, single oral dose 50 mg): 4.5 | lisdexamphetamine plasma concentration, Max [6, 10]: 41.42 | lisdexamphetamine plasma concentration, Mean [6, 10]: 17.7205 | lisdexamphetamine plasma concentration, Median [6, 10]: 15.72 | lisdexamphetamine plasma concentration, Min [6, 10]: 5.87 | lisdexamphetamine plasma concentration, Max ([6]; time 2, single oral dose 50 mg): 19.94 | lisdexamphetamine plasma concentration, Mean ([6]; time 2, single oral dose 50 mg): 9.0166 | lisdexamphetamine plasma concentration, Median ([6]; time 2, single oral dose 50 mg): 8.17 | lisdexamphetamine plasma concentration, Min ([6]; time 2, single oral dose 50 mg): 2.42 | lisdexamphetamine plasma concentration, Max ([6]; time 3, single oral dose 50 mg): 6.32 | lisdexamphetamine plasma concentration, Mean ([6]; time 3, single oral dose 50 mg): 1.8902 | lisdexamphetamine plasma concentration, Median ([6]; time 3, single oral dose 50 mg): 1.87 | lisdexamphetamine plasma concentration, Min ([6]; time 3, single oral dose 50 mg): 0 | lisdexamphetamine plasma concentration, Max ([6]; time 4, single oral dose 50 mg): 2.28 | lisdexamphetamine plasma concentration, Mean ([6]; time 4, single oral dose 50 mg): 0.2849 | lisdexamphetamine plasma concentration, Median ([6]; time 4, single oral dose 50 mg): 0 | lisdexamphetamine plasma concentration, Min ([6]; time 4, single oral dose 50 mg): 0 | lisdexamphetamine plasma concentration, Max ([6]; time 6, single oral dose 50 mg): 0 | lisdexamphetamine plasma concentration, Mean ([6]; time 6, single oral dose 50 mg): 0 | lisdexamphetamine plasma concentration, Median ([6]; time 6, single oral dose 50 mg): 0 | lisdexamphetamine plasma concentration, Min ([6]; time 6, single oral dose 50 mg): 0 | lisdexamphetamine plasma concentration, Max ([6]; time 8, single oral dose 50 mg): 0 | lisdexamphetamine plasma concentration, Mean ([6]; time 8, single oral dose 50 mg): 0 | lisdexamphetamine plasma concentration, Median ([6]; time 8, single oral dose 50 mg): 0 | lisdexamphetamine plasma concentration, Min ([6]; time 8, single oral dose 50 mg): 0 | lisdexamphetamine plasma concentration, Max [6, 11]: 0 | lisdexamphetamine plasma concentration, Mean [6, 11]: 0 | lisdexamphetamine plasma concentration, Median [6, 11]: 0 | lisdexamphetamine plasma concentration, Min [6, 11]: 0 | lisdexamphetamine plasma concentration, Max [6, 12]: 0 | lisdexamphetamine plasma concentration, Mean [6, 12]: 0 | lisdexamphetamine plasma concentration, Median [6, 12]: 0 | lisdexamphetamine plasma concentration, Min [6, 12]: 0 | lisdexamphetamine plasma concentration, Max [6, 13]: 0 | lisdexamphetamine plasma concentration, Mean [6, 13]: 0 | lisdexamphetamine plasma concentration, Median [6, 13]: 0 | lisdexamphetamine plasma concentration, Min [6, 13]: 0 | lisdexamphetamine plasma concentration, Max [6, 14]: 0 | lisdexamphetamine plasma concentration, Mean [6, 14]: 0 | lisdexamphetamine plasma concentration, Median [6, 14]: 0 | lisdexamphetamine plasma concentration, Min [6, 14]: 0 | lisdexamphetamine plasma concentration, Max [6, 15]: 0 | lisdexamphetamine plasma concentration, Mean [6, 15]: 0 | lisdexamphetamine plasma concentration, Median [6, 15]: 0 | lisdexamphetamine plasma concentration, Min [6, 15]: 0 | induction or inhibition of the CYP450 system [7]: neither an inducer nor inhibitor | metabolism by the CYP450 system [7]: not metabolized by the CYP450 system
